Columns and labels:
[1] = test system: Leydig cells; assay: Viability of isolated Leydig cells (trypan blue exclusion test); format: cell-based, boar; settings: 100 μM, 8 h of exposure
Experimental: After the slaughter of group A boars, bulbourethral glands were removed and measured for length. A backfat sample was removed from the midline on the point of the 11th rib and frozen at −20° C. until assayed for 5α-androstenone. Testes samples were obtained from five randomly selected animals immediately after slaughter. Testes were transported to the laboratory within five minutes of their removal from the boar. One testis was dissected free from the epididymis, cut longitudinally, and decapsulated. The tissue was sliced and 100 g of tissue was incubated for 12 min in a shaking water bath at 37° C. with 1 mg/mL collagenase (type 1A), 50 μg/mL trypsin inhibitor, and 50 μg/mL DNase in 250 mL of Williams Media E containing 1 g/L bovine serum albumin and 0.1 g/L L-glutamine. Purified Leydig cells were obtained by layering the collagenase dispersed cells onto discontinuous Percoll gradients (Raeside and Renaud, 1983). Cell viability was determined with a trypan blue exclusion test. The typical viability of the isolated Leydig cells was 90%.
Purified Leydig cells were resuspended (50×10^6 cells/incubation) into a final volume of 25 ml of Williams Media E mixture. […] The sulfotransferase activity towards 5α-androstenone was determined by HPLC analysis of extracted 5 ml media aliquots.

[2] = test system: sulfotransferase activity towards 5α-androstenone in Leydig cells; assay: Inhibition studies: production of sulfoconjugated 16-androstene steroids from radiolabelled pregnenolone by purified Leydig cells; format: cell-based, boar; settings: for production of sulfoconjugated 16-androstene steroids from pregnenolone: 8 hours, 0, 5, 10, 50 or 100 μM inhibitor
Experimental: Purified Leydig cells were resuspended (50×10^6 cells/incubation) into a final volume of 25 ml of Williams Media E mixture. Radiolabelled [7-^3H(N)]-pregnenolone (3.4μCi/μmol) was added as a substrate to give a final concentration of 0.4 μmol/incubation. Leydig cells were incubated for a total of 8 hours at 37° C. under 95%:5% CO2 atmosphere at in a Dubnoff shaking waterbath in the presence of 0, 5, 10, 50, or 100 μM of various sulfotransferase inhibitors. 8 hour incubations were used, as this is an optimal time-point for steroid conjugation under these conditions. […] Estrone was used as an EST-inhibitor. The sulfotransferase activity towards 5α-androstenone was determined by HPLC analysis of extracted 5 ml media aliquots.
Prior to analysis, conjugated steroids were separated from unconjugated steroids with the use of Sep-Pak C18 solid-phase chromatography cartridges as described previously (Raeside et al., 1997). After separation, the conjugate fraction was hydrolyzed overnight in trifluroacetic acid/ethyl acetate (1/100 v/v) at 45° C. in order to liberate the sulfoconjugated steroids (Raeside et al., 1999b). The solvolyzed steroids were then re-extracted by solid-phase chromatography. Enzyme hydrolysis was performed on the remaining conjugated material present after solvolysis with 1250 units of β-glucuronidase (type B-1, from bovine liver), and incubated overnight at 37° C.
The unconjugated and hydrolyzed steroids from the inhibition studies were analyzed by HPLC using the same protocol as stated above; however; radiolabelled steroids were measured on-line with a Canberra-Packard 500TR flow scintillation analyzer.

[3] = test system: rat SULT2A1 gene; settings: Makishima et al., 1999; cited from earlier work
[4] = test system: HST; settings: Okuda et al., 1989; Singer et al., 1984; cited from earlier work

Structure (SMILES) | viability of the Leydig cells [1] | production of the unconjugated forms of the 16-androstene steroids ([2]; Leydig cells treated with inhibitor, 8 hours) | production of sulfoconjugated 16-androstene steroids from pregnenolone ([2]; Leydig cells) | production of sulfoconjugated 16-androstene steroids at the 100 μM level ([2]; Leydig cells, 8 hours, 100 μM inhibitor) | induction of the rat SULT2A1 gene [3] | inhibition of HST [4]
CCN(CC)CC [Triethylamine] | 85% | increased production | decreased production | near zero levels |  | 
C[C@H](CCC(=O)O)[C@H]1CC[C@H]2[C@@H]3[C@H](O)C[C@@H]4C[C@H](O)CC[C@]4(C)[C@H]3CC[C@]12C [Chenodeoxycholic acid] |  |  |  |  | strong inducer | 
Oc1c(Cl)c(Cl)c(Cl)c(Cl)c1Cl [PCP, Pentachlorophenol] | less than 50% |  | no effect |  |  | does not inhibit

— patent US20060024708A1, “Porcine sulfotransferase 2A1 polynucleotide sequence, protein, and methods of use for same” (UNIVERSITY OF GUELPH, priority 2004, published 2006)
